This is an account of results in US7829563B2, “Aminoamides as orexin antagonists” (Hoffmann-La Roche Inc., priority 2007, dated 2010).

For orientation: Kb means the affinity of an antagonist, worked out from how it opposes an agonist.

The target of the assay is T1, human orexin-2 (hOX2) receptors (Homo sapiens, UniProt O43614).
T1 construct: expressed in transfected cells
T1 sequence (O43614 1-444): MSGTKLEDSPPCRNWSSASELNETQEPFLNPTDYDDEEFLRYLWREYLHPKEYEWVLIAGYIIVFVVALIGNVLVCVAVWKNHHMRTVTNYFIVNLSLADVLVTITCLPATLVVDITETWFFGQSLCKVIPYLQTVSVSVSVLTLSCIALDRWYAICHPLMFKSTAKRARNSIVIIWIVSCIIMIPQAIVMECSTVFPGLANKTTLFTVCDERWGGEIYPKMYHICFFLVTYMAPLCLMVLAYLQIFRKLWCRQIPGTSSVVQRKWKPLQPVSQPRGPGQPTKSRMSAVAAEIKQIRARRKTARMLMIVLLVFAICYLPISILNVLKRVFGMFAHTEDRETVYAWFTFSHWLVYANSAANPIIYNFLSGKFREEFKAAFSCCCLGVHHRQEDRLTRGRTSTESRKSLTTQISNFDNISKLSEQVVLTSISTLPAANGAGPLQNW
Put plainly: Intracellular Ca2+ mobilization assay (FLIPR), antagonism of orexin-A. It counts as cell-based. The note with it: CHO(dHFr−) cells stably expressing hOX2; orexin-A at EC80 as agonist; Kb=IC50/(1+[A]/EC50); read-out: Kb (μM) OX2R (human). As to the method:
R^7 and R^8 in scheme 5 are hydrogen, and the other substituents are as described above The compounds were investigated in accordance with the test given hereinafter. Intracellular Ca^2+ Mobilization Assay
The Chinese Hamster Ovary (dHFr−) mutant cell line stably expressing human orexin-1 (hOX1) or human orexin-2 (hOX2) receptors were maintained in Dulbecco's Modified Eagle Medium (1×) with GlutaMax™ 1, 4500 mg/L D-Glucose and Sodium Pyruvate (Catalog No. 31966-021, Invitrogen, Carlsbad, Calif.), 5% dialyzed fetal calf serum (Catalog No. 26400-044), 100 μg/ml penicillin and 100 μg/ml streptomycin. The cells were seeded at 5×10^4 cells/well in the poly-D-lysine treated, 96-well, black/clear-bottomed plates (Catalog No. BD356640, BD Biosciences, Palo Alto, Calif.). 24 h later, the cells were loaded for 1 h at 37° C. with 4 μM Flou-4 acetoxymethyl ester (Catalog No. F-14202, Molecular Probes, Eugene, Oreg.) in FLIPR buffer (1×HBSS, 20 mM HEPES, 2.5 mM Probenecid). Hanks' Balanced Salt Solution (HBSS) (10×) (catalog No. 14065-049) and HEPES (1M) (catalog No. 15630-056) were purchased from Invitrogen, Carlsbad, Calif. Probenecid (250 mM) (catalog No. P8761) was from Sigma, Buchs, Switzerland. The cells were washed five times with FLIPR buffer to remove excess dye and intracellular calcium mobilization, [Ca^2+]i were measured using a Fluorometric Imaging Plate Reader (FLIPR-96, Molecular Devices, Menlo Park, Calif.) as described previously (Malherbe et al., Mol. Pharmacol., 64, 823-832, 2003). Orexin A (catalog No. 1455, Toris Cookson Ltd, Bristol, UK) was used as agonist. Orexin A ([…] stock solution in DMSO) was diluted in FLIPR buffer+0.1% BSA. The EC50 and EC80 values of orexin-A were measured daily from standard agonist concentration-response curves in CHO(dHFr−)-OX1R and —OX2R cell lines. All compounds were dissolved in 100% DMSO. Inhibition curves were determined by addition of 11 concentrations (0.0001-10 μM) of inhibitory compounds and using EC80 value of orexin-A as agonist (a concentration which gave 80% of max agonist response, determined daily). The antagonists were applied 25 min (incubation at 37° C.) before the application of the agonist. Responses were measured as peak increase in fluorescence minus basal, normalized to the maximal stimulatory effect induced by EC80 value of orexin-A or orexin-B. Inhibition curves were fitted according to the Hill equation: y=100/(1+(x/IC50)^nH), where nH=slope factor using Excel-fit 4 software (Microsoft). Kb values were calculated according to the following equation Kb=IC50/(1+[A]/EC50) where A is the concentration of agonist added which is very close to agonist EC80 value, and IC50 and EC50 values were derived from the antagonist inhibition and orexin-A or B agonist curves, respectively.
`CNC(=O)C(NC(CCc1ccc(C)nc1)c1ccc(F)c(C)c1)c1ccccc1` (mixture of isomers) [Example 258, 2-[1-(4-Fluoro-3-methyl-phenyl)-3-(6-methyl-pyridin-3-yl)-propylamino]-N-methyl-2-phenyl-acetamide]: the Kb is 0.0172 µM. The value for `CNC(=O)C(NC(CCc1ccc(C(F)(F)F)nc1)c1ccc(OC(F)F)c(OC(F)F)c1)c1ccccc1` (mixture of isomers) [Example 263, 2-[1-(3,4-Bis-difluoromethoxy-phenyl)-3-(6-trifluoromethyl-pyridin-3-yl)-propylamino]-N-methyl-2-phenyl-acetamide] was 0.0102 µM; that for `CNC(=O)[C@@H](N[C@@H](CCc1ccc(C(F)(F)F)cc1)c1ccc(OC)c(OC)c1)c1ccc(Cl)cc1` (racemic) [Example 33, (S,R)-2-(4-Chloro-phenyl)-2-[(S,R)-1-(3,4-dimethoxy-phenyl)-3-(4-trifluoromethyl-phenyl)-propylamino]-N-methyl-acetamide] was 0.009 µM. To `CNC(=O)[C@H](N[C@@H](CCc1ccc(C(F)(F)F)cc1)c1ccc(OC)c(OC)c1)c1ccc(F)cc1` (racemic) [Example 34, (S,R)-2-[(R,S)-1-(3,4-Dimethoxy-phenyl)-3-(4-trifluoromethyl-phenyl)-propylamino]-2-(4-fluoro-phenyl)-N-methyl-acetamide] belongs 0.0049 µM. Regarding `CNC(=O)[C@H](N[C@@H](CCc1ccc(Cl)cc1)c1ccc2c(c1)CCO2)c1ccccc1` (racemic) [Example 38, (S,R)-2-[(R,S)-3-(4-Chloro-phenyl)-1-(2,3-dihydro-benzofuran-5-yl)-propylamino]-N-methyl-2-phenyl-acetamide], the Kb was 0.0096 µM. To `CNC(=O)[C@H](N[C@@H](CCc1ccc(Cl)cc1)c1ccc(OC)c(OC)c1Cl)c1ccccc1` (racemic) [Example 40, (S,R)-2-[(R,S)-1-(2-Chloro-3,4-dimethoxy-phenyl)-3-(4-chloro-phenyl)-propylamino]-N-methyl-2-phenyl-acetamide] belongs 0.0068 µM. Turning to `CNC(=O)[C@H](N[C@H](CCc1ccc(Cl)cc1)c1ccc(OC)c(OC)c1Cl)c1ccccc1` (racemic) [Example 41, (S,R)-2-[(S,R)-1-(2-Chloro-3,4-dimethoxy-phenyl)-3-(4-chloro-phenyl)-propylamino]-N-methyl-2-phenyl-acetamide], the antagonist equilibrium constant (Kb) was found to be 0.0167 µM. The value for `CNC(=O)[C@H](N[C@@H](CCc1ccc(C(F)(F)F)nc1)c1ccc2c(c1)CCCC2)c1ccc(F)cc1` (racemic) [Example 57, (S,R)-2-(4-Fluoro-phenyl)-N-methyl-2-[(R,S)-1-(5,6,7,8-tetrahydro-naphthalen-2-yl)-3-(6-trifluoromethyl-pyridin-3-yl)-propylamino]-acetamide] was 0.0093 µM; that for `CNC(=O)[C@H](N[C@@H](CCc1ccc(C(F)(F)F)cc1)c1ccc2c(c1)OCCN2C)c1ccccc1` (racemic) [Example 78, (S,R)—N-Methyl-2-[(R,S)-1-(4-methyl-3,4-dihydro-2H-benzo[1,4]oxazin-7-yl)-3-(4-trifluoromethyl-phenyl)-propylamino]-2-phenyl-acetamide] was 0.0127 µM. With `CNC(=O)[C@H](N[C@@H](CCc1ccc(OC)cc1)c1cccnc1OC)c1ccccc1` (racemic) [Example 135, (S,R)-2-[(R,S)-3-(4-Methoxy-phenyl)-1-(2-methoxy-pyridin-3-yl)-propylamino]-N-methyl-2-phenyl-acetamide], the Kb worked out at 0.0155 µM. To `CNC(=O)[C@@H](N[C@@H](CCc1ccc(C(F)(F)F)cc1)c1ccc(OC)c(OC)c1)c1ccccc1` (racemic) [Example 141, (S,R)-2-[(S,R)-1-(3,4-Dimethoxy-phenyl)-3-(4-trifluoromethyl-phenyl)-propylamino]-N-methyl-2-phenyl-acetamide] belongs 0.0168 µM; to `CNC(=O)[C@H](N[C@@H](CCc1ccc(C(F)(F)F)cc1)c1ccc(OC)c(OC)c1)c1ccccc1` (racemic) [Example 142, (S,R)-2-[(R,S)-1-(3,4-Dimethoxy-phenyl)-3-(4-trifluoromethyl-phenyl)-propylamino]-N-methyl-2-phenyl-acetamide], 0.003 µM; to `CNC(=O)[C@H](N[C@@H](CCc1ccc(OC)cc1)c1ccc(OC)c(OC)c1)c1ccccc1` (racemic) [Example 146, (S,R)-2-[(R,S)-1-(3,4-Dimethoxy-phenyl)-3-(4-methoxy-phenyl)-propylamino]-N-methyl-2-phenyl-acetamide], 0.0132 µM. To `CNC(=O)[C@H](N[C@@H](CCc1ccc(C(F)(F)F)nc1)c1ccc(OC)c(OC)c1)c1ccccc1` (racemic) [Example 171, (S,R)-2-[(R,S)-1-(3,4-Dimethoxy-phenyl)-3-(6-trifluoromethyl-pyridin-3-yl)-propylamino]-N-methyl-2-phenyl-acetamide] belongs 0.005 µM; to `CNC(=O)[C@H](N[C@H](CCc1ccc(C(F)(F)F)cc1)c1ccc(Cl)c(OC)c1)c1ccccc1` (racemic) [Example 176, (S,R)-2-[(S,R)-1-(4-Chloro-3-methoxy-phenyl)-3-(4-trifluoromethyl-phenyl)-propylamino]-N-methyl-2-phenyl-acetamide], 0.0086 µM. In the case of `CNC(=O)[C@H](N[C@@H](CCc1ccc(C(F)(F)F)cc1)c1ccc(Cl)c(OC)c1)c1ccccc1` (racemic) [Example 177, (S,R)-2-[(R,S)-1-(4-Chloro-3-methoxy-phenyl)-3-(4-trifluoromethyl-phenyl)-propylamino]-N-methyl-2-phenyl-acetamide], the Kb turned out to be 0.0099 µM. `CNC(=O)[C@H](N[C@@H](CCc1ccc(C(F)(F)F)cc1)c1cccnc1OC)c1ccccc1` (racemic) [Example 179, (S,R)-2-[(R,S)-1-(2-Methoxy-pyridin-3-yl)-3-(4-trifluoromethyl-phenyl)-propylamino]-N-methyl-2-phenyl-acetamide]: the antagonist equilibrium constant (Kb) amounted to 0.0081 µM. To `CNC(=O)[C@H](N[C@@H](CCc1ccc(C(F)(F)F)cc1)c1cccc(C)n1)c1ccccc1` (racemic) [Example 207, (S,R)—N-Methyl-2-[(R,S)-1-(6-methyl-pyridin-2-yl)-3-(4-trifluoromethyl-phenyl)-propylamino]-2-phenyl-acetamide] belongs 0.0079 µM; to `CNC(=O)[C@H](N[C@@H](CCc1ccc(C)cc1)c1ccc(OC)c(OC)c1)c1ccccc1` (racemic) [Example 209, (S,R)-2-[(R,S)-1-(3,4-Dimethoxy-phenyl)-3-p-tolyl-propylamino]-N-methyl-2-phenyl-acetamide], 0.0024 µM. As for `CNC(=O)[C@H](N[C@@H](CCc1ccc(C(F)(F)F)cc1)c1cc(OC)ccn1)c1ccccc1` (racemic) [Example 210, (S,R)-2-[(R,S)-1-(4-Methoxy-pyridin-2-yl)-3-(4-trifluoromethyl-phenyl)-propylamino]-N-methyl-2-phenyl-acetamide], the Kb was found to be 0.0096 µM. The value for `CNC(=O)[C@H](N[C@H](CCc1ccc(C(F)(F)F)nc1)c1ccc(Cl)c(OC)c1)c1ccccc1` (racemic) [Example 215, (S,R)-2-[(S,R)-1-(4-Chloro-3-methoxy-phenyl)-3-(6-trifluoromethyl-pyridin-3-yl)-propylamino]-N-methyl-2-phenyl-acetamide] was 0.008 µM.
